Data reported in paper PMC2360332 (British Journal of Cancer, 2007).
Where two headings read alike, the source gives them in different places.

Experiments:
[1] = tested on: immature mouse uterus; experiment: Immature mouse uterine growth assay; assay type: in vivo, Swiss mice; conditions: uteri harvested 22 h later, five mice per group; for Growth of immature mouse uterus (in words): single agent i.p., Tam 1 μg or AFPep 10 μg
Source text: Control mice received the vehicle. Twenty-two hours later, uteri were harvested, trimmed free of connective tissue, and weighed. Uterine weights were normalised to donor mouse body weight. There were five replicate mice per group.
Twenty-two hours after treatment, uteri were harvested, weighed, and normalised to mouse body weight.

[2] = tested on: phosphorylation of ER at serine 118; conditions: cited from earlier work
Source text: Mechanistically, AFPep is quite different from Tam. […] In fact, in this study and ...

[3] = tested on: MNU-induced breast cancers in rats; experiment: Prevention of MNU-induced mammary cancers in rats; conditions: for Inhibition of tumour formation (in words): Tam 6.25 μg animal^−1 day^−1 or higher, AFPep 270 μg animal^−1 day^−1; for Incidence (percent of rats with one or more tumours when killed, approximately 120 days after MNU): 20 days from 10 days after MNU 50 mg kg^−1, n=30 rats, control 78%; for Volume (sum of the volumes of tumours in each group) / Multiplicity (total number of tumours/number of rats) / Latency (mean number of tumour-free days±s.d.): 20 days; for Volume (sum of the volumes of tumours in each group): control 69.0; for Multiplicity (total number of tumours/number of rats): control 2.1; for Latency (mean number of tumour-free days±s.d.): control 80±31
Procedure: Female rats were housed three per cage in a room maintained at 22±1°C, and artificially lighted for 12 h per day. At 50 days of age, rats received a single injection of MNU (50 mg kg^−1 body weight) or vehicle in the jugular vein. N-methyl-N-nitrosourea was administered to animals in the various treatment groups according to a predetermined randomisation chart, so as to ensure uniform distribution of the carcinogen across the groups. […] A control group of animals received daily 0.2 ml s.c. injections of saline for the same time period as AFPep administration and experienced the maximal number of tumours. Starting 30 days after MNU treatment, all rats were palpated weekly for detection of mammary tumours, noting number, location, and size. Tumour burden was determined noninvasively using calipers to measure the long (D) and short (d) diameter of each tumour. Assuming that tumours were ellipsoid shaped, tumour volume was estimated as (0.52d^2D). Cage activity of all animals was monitored daily for gross signs of toxicity. At necropsy, body weight and organ weights were assessed as indicators of toxicity.
Sprague–Dawley female rats (n=30 rats group^−1) received MNU (50 mg kg^−1) at the age of 50 days. […] Animals were palpated weekly. The incidence of tumours is shown as a function of time after carcinogen treatment.

[4] = tested on: oestrogen receptor (ER); experiment: Inhibition of binding of [^3H]E2 to oestrogen receptor (rabbit uterine cytosol); conditions: rabbit uterine cytosol 2.5 mg protein ml^−1, 20 μl of 10 nM 6,7-[^3H]E2, overnight at 4°C, pH 7.4, dextran-coated charcoal; triplicate
Procedure: Rabbit uteri (Pel-Freez Biological, Rogers, AR, USA) were used as a source of ER. Uteri were pulverised in a stainless-steel impact mortar under liquid nitrogen and homogenised (20% w/v) in buffer (10 mM Tris, pH 7.4, 1.5 mM EDTA, 10% glycerol, 10 mM monothioglycerol, and 10 mM sodium molybdate) on ice. Centrifugation (50 000 g) for 1 h yielded cytosol, which was adjusted with buffer to 2.5 mg protein ml^−1. All incubations were carried out in triplicate, each containing 100 μl of cytosol, 20 μl of 10 nM 6,7-[^3H]oestradiol (6,7-[^3H]E2), and 80 μl of antagonist. After incubation overnight at 4°C, tubes received 300 μl of dextran-coated charcoal suspension; tubes were agitated for 15 min, and then centrifuged (1000 g) for 15 min.
Rabbit uterine cytosol was used as a source of ER. Test agents (80 μl) at the final concentrations indicated were incubated in triplicate with 100 μl of cytosol, and 20 μl of 10 nM 6,7-[^3H]E2 (50 Ci mmol^−1). The concentration of the [^3H]E2 complex with receptor in the presence of the test agent is expressed as a percentage of the amount of complex formed in the absence of test agent.

[5] = tested on: T47D human breast cancer cells; experiment: Growth of T47D human breast cancer cells in culture (7 days, viable cell count); assay type: cell-based; conditions: for Inhibition of basal (no E2) growth of T47D cells (in words): 10^−8 to 10^−5 M, data not shown; for Inhibition of E2-stimulated growth of T47D cells, single agent (in words): E2 10^−9 M added 1 h after agent, daily for 7 days, agent used alone, concentration–response in Figure 1A
Procedure: The MCF-7 cells were maintained in monolayer culture in Dulbecco's modification of Eagle's medium (DMEM) supplemented with 5% fetal bovine serum, glutamine (2 mM), nonessential amino acids (1%), and bovine insulin (1 μg ml^−1). The T47D human breast cancer cells were maintained in monolayer culture in RPMI-1640 medium supplemented with 10% fetal bovine serum, 100 IU ml^−1 penicillin, 100 μg ml^−1 streptomycin, 0.25 μg ml^−1 amphotericin B, and 8 μg ml^−1 bovine insulin in T-75 flasks with 2–3 medium changes per week. Cells were maintained at 37°C in an atmosphere of 5% CO2, 95% air. To evaluate the oestrogen-stimulated growth of these cells, they were released from monolayer using 0.25% trypsin/0.53 mM EDTA and suspended in oestrogen-free medium comprised of DMEM (high glucose, phenol red-free), supplemented with 10% charcoal-stripped bovine calf serum, 2 mM glutamine, 100 IU ml^−1 penicillin, and 100 μg ml^−1 streptomycin. One millilitre containing 1.2 × 10^5 cells was seeded into each well of a 24-well plate coated with collagen IV (BD Biosciences, Bedford, MA, USA). […] Control wells received the vehicle. Medium was changed every other day before treatment. One day after the last treatment, cells were trypsinised and resuspended in oestrogen-free medium, and counted using a haemacytometer following dilution with trypan blue. Viable cell number is reported.
T47D (1 × 10^5) cells were seeded into wells of collagen-coated plates in oestrogen-free medium. Medium was changed daily. Twenty-four hours after seeding, AFPep and/or Tam were added. One hour later E2 (10^−9 M) was added. Cells were treated daily for 7 days after which cells were harvested and counted in a hemacytometer. Mean viable cell number of six replicate wells ±s.e. was determined. (A) Concentration–response curve of each agent alone. Inhibition (%) of E2-stimulated growth is reported. (▪) Tam; (▴) AFPep. […] Mean viable cell number is reported.

[6] = tested on: MCF-7 human breast cancer xenografts; experiment: MCF-7 human breast cancer xenograft under kidney capsule of SCID mice; assay type: in vivo, human (cells), SCID mice (host); conditions: E2 supplementation, five mice per group
Source text: Ten million MCF-7 human breast cancer cells were harvested from culture, centrifuged into a pellet, solidified into a fibrin clot, and implanted under the kidney capsule of SCID mice as described previously ([Bennett et al, 1985], [2002], [2006]; [Mesfin et al, 2001]; [Parikh et al, 2005]). Oestrogen supplementation was accomplished by s.c. implantation of a 5 mm silastic tubing capsule containing solid E2 inserted on the day of tumour implantation. […] The tumour-bearing kidney was exposed during survival laparotomy at 14 and 28 days after implantation and tumour size was measured using a dissecting microscope equipped with an ocular micrometer, noting the long (D) and short (d) diameters of the tumour. Five replicate mice were included in each treatment group. Mean tumour volume (0.52d^2D) was calculated for each group, and used for display of growth curves. Significance of differences between groups was tested using the one-sided Wilcoxon rank sum test.
Pieces of MCF-7 tumour were implanted under the kidney capsule of SCID mice. Oestradiol was provided via an E2-containing silastic tubing subcutaneous implant.

[7] = Toxicity in MNU-exposed rats (body weight, organ weights, fur texture, cage activity); assay type: in vivo, Sprague–Dawley rats; conditions: for Body weight / Uterine weight / Heart weight: 20 days; for Body weight: control 283±30; for Uterine weight: control 0.54±0.15; for Heart weight: control 1.10±0.14
Source text: [Swanson et al, 1997]). […] In the therapy model (human tumour xenografts growing in mice) and in the prevention model (MNU-induced mammary cancers in rats), the toxicity of […]

[8] = tested on: ER; conditions: ref Parikh et al, 2005; Bennett et al, 2006; cited from earlier work
Source text: In fact, in this study and ...

[9] = higher dose: AFPep 270 μg/rat/day s.c. or Tam 6.25 μg/rat/day oral gavage
[10] = higher dose: AFPep 270 (marked * P<0.05 vs control) or Tam 6.25 μg/rat/day
[11] = higher dose: AFPep 270 or Tam 6.25 μg/rat/day
[12] = suboptimal dose: AFPep 100 μg/rat/day s.c., Tam 0.05 μg/rat/day oral gavage, or both (100+0.05)
[13] = suboptimal dose: AFPep 100, Tam 0.05, or both (100+0.05) μg/rat/day, AFPep and AFPep+Tam marked * P<0.05 vs control
[14] = suboptimal dose: AFPep 100, Tam 0.05, or both (100+0.05) μg/rat/day
[15] = effective single-agent dose: AFPep 10 μg mouse^−1 day^−1 i.p. or Tam 1 μg mouse^−1 day^−1 p.o., over a 30-day period
[16] = suboptimal dose: AFPep 0.1 μg i.p., Tam 0.05 μg p.o. per mouse per day, single agents
[17] = higher dose: AFPep 270 μg/rat/day

| Compound | Growth of immature mouse uterus (in words) [1] | Inhibition of tumour formation (in words) [3] | Incidence (percent of rats with one or more tumours when killed, approximately 120 days after MNU) [3, 9] | Volume (sum of the volumes of tumours in each group) [3, 10] | Multiplicity (total number of tumours/number of rats) [3, 11] | Latency (mean number of tumour-free days±s.d.) [3, 11] | Incidence (percent of rats with one or more tumours when killed, approximately 120 days after MNU) [3, 12] | Volume (sum of the volumes of tumours in each group) [3, 13] | Multiplicity (total number of tumours/number of rats) [3, 14] | Latency (mean number of tumour-free days±s.d.) [3, 14] | Inhibition of binding of [^3H]E2 to ER (in words) [4] | Inhibition of basal (no E2) growth of T47D cells (in words) [5] | Inhibition of E2-stimulated growth of T47D cells, single agent (in words) [5] | Growth of MCF-7 tumour xenografts (in words) [6, 15] | Growth of MCF-7 tumour xenografts (in words) [6, 16] | Body weight [7, 11] | Uterine weight [7, 14] | Heart weight [7, 14] | Body weight [7, 14] | further results |
| --- | --- | --- | --- | --- | --- | --- | --- | --- | --- | --- | --- | --- | --- | --- | --- | --- | --- | --- | --- | --- |
| CC/C(=C(\c1ccccc1)c1ccc(OCCN(C)C)cc1)c1ccccc1 [Tam, Tamoxifen, reference compound] | stimulates the growth of immature mouse uterus | significant inhibition of tumour formation | 26% | 70.2 cm^3 | 0.5 tumours/rat | 85 ± 15 days | 73% | 62.4 cm^3 | 1.3 tumours/rat | 95 ± 36 days | concentration-dependent inhibition of E2 binding | neither Tam nor AFPep inhibited the basal (no E2) growth | inhibited the E2-stimulated growth | completely prevented the growth of MCF-7 tumour xenografts | tumour growth occurred, although it was less than tumour growth in nontreated mice | 273 ± 28 g | 0.49 ± 0.17 g | 1.12 ± 0.13 g | 282 ± 31 g | Stimulation of phosphorylation of ER at serine 118 (in words) ([2]; following binding to receptor, ref Chen et al, 2002): stimulates phosphorylation of ER at serine 118; Effect on uterine growth (in words) ([7]; rats, low doses, whether or not AFPep was present): no effect on uterine growth |
| cyclo(EKTOVNOGN) (head to tail) [AFPep] | does not stimulate uterine growth | significant inhibition of tumour formation | 40% | 34.5^* cm^3 | 0.5 tumours/rat | 88 ± 16 days | 63% | 39.1^* cm^3 | 1.1 tumours/rat | 97 ± 33 days | did not inhibit the binding of [^3H]E2 to ER | neither Tam nor AFPep inhibited the basal (no E2) growth | inhibited the E2-stimulated growth | completely prevented the growth of MCF-7 tumour xenografts | tumour growth occurred, although it was less than tumour growth in nontreated mice | 280 ± 29 g | 0.52 ± 0.15 g | 1.12 ± 0.14 g | 285 ± 24 g | ER antagonist / partial agonist (in words) [8]: not an ER antagonist, nor an ER partial agonist; Tam-induced growth of immature mouse uterus (in words) ([1]; AFPep 10 μg i.p. 1 h before Tam 1 μg i.p., Figure 4 * P<0.05 vs Tam alone, Dunnett's test): significantly inhibits the Tam-induced growth of the immature mouse uterus; Stimulation of phosphorylation of ER at serine 118 (in words) ([2]; ref Bennett et al, 2006): did not stimulate phosphorylation of ER at serine 118; Inhibition of phosphorylation of ER following ligand binding (in words) ([2]; stated in Discussion as function of AFPep, not measured in this paper): inhibit the phosphorylation of ER that follows ligand binding to ER; Uterine weight [7, 17]: 0.62 ± 0.17 g; Heart weight [7, 17]: 1.09 ± 0.13 g; Effect on body weight, fur texture, cage activity, organ weights (in words) ([7]; rats, therapeutic doses for 2–3 weeks): no effect on body weight, fur texture, or cage activity during the lifespan of the animals, or on organ weights obtained at necropsy |
